The numbers were not newly measured in patent US20100015233A1, “anti-parasitic compositions” (priority 2006, published 2010), which cites them from elsewhere.

Values after ≈ are worked out from the molar mass of the structure shown.

One may read the half-life as the time needed for the level to fall by half in the phase considered.

The conditions of data set [1]: in vivo.

`CCCCN(CCCC)CC(O)c1cc(Cl)cc2c1-c1ccc(Cl)cc1/C2=C/c1ccc(Cl)cc1` (centres unmarked) [Lumefantrine]: the half-life in data set [1] is 72 to 140 h.
`C[C@@H]1CC[C@H]2[C@@H](C)C(=O)O[C@@H]3O[C@@]4(C)CC[C@@H]1[C@]32OO4` [artemisinin]: the solubility in water is 84 µg/mL (≈ 298 µM).
